Source: PubChem BioAssay (NCI)
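GI50: concentration for 50% inhibition of growth. TGI: concentration producing complete growth inhibition.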

How the values were obtained:
Assay in all cases: NCI-60 cell line screen, 384-well format; in the data active means GI50 below about 0.43 µM; inactive means the rest
[1] = test system: 786-0 renal
[2] = test system: A498 renal
[3] = test system: A549 NSCLC
[4] = test system: ACHN renal
[5] = test system: BT-549 breast
[6] = test system: CAKI-1 renal
[7] = test system: CCRF-CEM leukemia
[8] = test system: COLO 205 colon
[9] = test system: DU-145 prostate
[10] = test system: EKVX NSCLC
[11] = test system: HCC-2998 colon
[12] = test system: HCT-116 colon
[13] = test system: HCT-15 colon
[14] = test system: HL-60(TB) leukemia
[15] = test system: HOP-62 NSCLC
[16] = test system: HOP-92 NSCLC
[17] = test system: HT29 colon
[18] = test system: IGROV1 ovarian
[19] = test system: KM12 colon
[20] = test system: LOX IMVI melanoma
[21] = test system: M14 melanoma
[22] = test system: MCF7 breast
[23] = test system: MDA-MB-468 breast
[24] = test system: MOLT-4 leukemia
[25] = test system: NCI-H226 lung
[26] = test system: NCI-H460 NSCLC
[27] = test system: NCI/ADR-RES ovarian
[28] = test system: OVCAR-3 ovarian
[29] = test system: OVCAR-4 ovarian
[30] = test system: OVCAR-5 ovarian
[31] = test system: OVCAR-8 ovarian
[32] = test system: PC-3 prostate
[33] = test system: RPMI-8226 leukemia
[34] = test system: SF-268 CNS
[35] = test system: SF-295 CNS
[36] = test system: SNB-75 CNS
[37] = test system: SW-620 colon
[38] = test system: TK-10 renal
[39] = test system: U251 glioblastoma
[40] = test system: UACC-62 melanoma
[41] = test system: UO-31 renal

CCNCCS(=O)(=O)NC[C@@]1(c2ccccc2)SC(NC(=O)C(C)(C)C)=NN1C(=O)C(C)(C)C
62.6 µM: TGI [37]
48.7 µM: TGI [36]
62 µM: TGI [16]
active: GI50 [1] < 0.01 µM | GI50 [2] < 0.01 µM | GI50 [3] < 0.01 µM | GI50 [5] < 0.01 µM | GI50 [6] 0.0427 µM | GI50 [7] < 0.01 µM | GI50 [8] < 0.01 µM | GI50 [9] < 0.01 µM | GI50 [10] < 0.01 µM | GI50 [11] < 0.01 µM | GI50 [12] < 0.01 µM | GI50 [13] 0.108 µM | GI50 [14] < 0.01 µM | GI50 [15] < 0.01 µM | GI50 [16] < 0.01 µM | GI50 [17] < 0.01 µM | GI50 [18] < 0.01 µM | GI50 [19] < 0.01 µM | GI50 [20] < 0.01 µM | GI50 [21] < 0.01 µM | GI50 [22] < 0.01 µM | GI50 [23] < 0.01 µM | GI50 [24] < 0.01 µM | GI50 [26] < 0.01 µM | GI50 [28] < 0.01 µM | GI50 [30] < 0.01 µM | GI50 [31] < 0.01 µM | GI50 [32] < 0.01 µM | GI50 [33] < 0.01 µM | GI50 [34] < 0.01 µM | GI50 [35] 0.0177 µM | GI50 [36] < 0.01 µM | GI50 [37] < 0.01 µM | GI50 [39] < 0.01 µM | GI50 [40] < 0.01 µM
24.6 µM: TGI [11]
58.9 µM: TGI [5]
< 0.01 µM: TGI [7] | TGI [8] | TGI [14] | TGI [17] | TGI [21] | TGI [23] | TGI [24] | TGI [26] | TGI [28] | TGI [33] | TGI [34]
22.4 µM: TGI [20]
42.7 µM: TGI [22]
> 100 µM: TGI [2] | TGI [3] | TGI [4] | TGI [6] | TGI [9] | TGI [10] | TGI [12] | TGI [13] | TGI [18] | TGI [19] | TGI [25] | TGI [27] | TGI [29] | TGI [30] | TGI [31] | TGI [32] | TGI [35] | TGI [38] | TGI [39] | TGI [40] | TGI [41]
inactive: GI50 [4] 52.6 µM | GI50 [25] 74.6 µM | GI50 [27] 3.42 µM | GI50 [29] 29.5 µM | GI50 [38] 26.4 µM | GI50 [41] 63.3 µM
28.6 µM: TGI [1]
75.6 µM: TGI [15]
